Substitutions are numbered along the chain they refer to.
How the values were obtained:
Assay in all cases: isothermal titration calorimetry
Assay type in all cases: binding
[1] = molecular target: T1, human DIPP1 (DIPP1 1-148) (Homo sapiens, UniProt O95989)
T1 sequence (O95989 1-148): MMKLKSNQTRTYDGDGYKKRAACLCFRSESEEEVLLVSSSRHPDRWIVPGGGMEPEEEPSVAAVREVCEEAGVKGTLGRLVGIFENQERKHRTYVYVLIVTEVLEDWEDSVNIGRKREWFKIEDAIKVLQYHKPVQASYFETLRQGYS

[2] = molecular target: T2, human DIPP1 (DIPP1 1-148) (Homo sapiens, UniProt O95989, K18A)
T2 sequence (O95989 1-148 K18A): T1 sequence (O95989 1-148) with K18A

[3] = molecular target: T3, human DIPP1 (DIPP1 1-148) (Homo sapiens, UniProt O95989, R41A)
T3 sequence (O95989 1-148 R41A): T1 sequence (O95989 1-148) with R41A

[4] = molecular target: T4, human DIPP1 (DIPP1 1-148) (Homo sapiens, UniProt O95989, R45A)
T4 sequence (O95989 1-148 R45A): T1 sequence (O95989 1-148) with R45A

[5] = molecular target: T5, human DIPP1 (DIPP1 1-148) (Homo sapiens, UniProt O95989, H42A)
T5 sequence (O95989 1-148 H42A): T1 sequence (O95989 1-148) with H42A

[6] = molecular target: T6, human DIPP1 (DIPP1 1-148) (Homo sapiens, UniProt O95989, H42A/R45A)
T6 sequence (O95989 1-148 H42A/R45A): T1 sequence (O95989 1-148) with H42A, R45A

Row | Kd [1] [nM] | Kd [2] [µM] | Kd [3] [nM] | Kd [4] [nM] | Kd [5] [nM] | Kd [6] [nM] | SMILES
1 | 158 ± 9 | 4.99 ± 0.62 | 460 ± 50 | 360 ± 50 | 510 ± 100 | 1060 ± 90 | O=P(O)(O)O[C@@H]1[C@@H](OP(=O)(O)O)[C@H](OP(=O)(O)OP(=O)(O)O)[C@@H](OP(=O)(O)O)[C@H](OP(=O)(O)OP(=O)(O)O)[C@@H]1OP(=O)(O)O [1,5-InsP8, 1,5-bis-diphosphoinositol 2,3,4,6-tetrakisphosphate]
2 | 251 ± 31 |  |  |  |  |  | O=P(O)(O)O[C@@H]1[C@@H](OP(=O)(O)OP(=O)(O)O)[C@H](OP(=O)(O)O)[C@@H](OP(=O)(O)O)[C@@H](O)[C@H]1OP(=O)(O)O [5-PP-InsP4, 5-diphosphoinositol 1,3,4,6-tetrakisphosphate]
